In ChEMBL document CHEMBL5518167, “Degradation of Polo-like Kinase 1 by the Novel Poly-Arginine N-Degron Pathway PROTAC Regulates Tumor Growth in Nonsmall Cell Lung Cancer” (J Med Chem, 2024):
Activity calls are given as the source filed them. No cut-off for these calls is given here. Where a SMILES comes first, the peptide text is derived from it. Bridges are numbered along the chain shown (N, C = ends). [ ]: non-standard residue; d: D form. His(π-(CH2)8Ph) = N[C@@H](Cc1cncn1CCCCCCCCc1ccccc1)C(=O)O; pT = C[C@@H](OP(=O)(O)O)[C@H](N)C(=O)O; Ahx = NCCCCCC(=O)O

What was measured:
NCI-H1975 [1] = assay: Cytotoxicity against human NCI-H1975 cells assessed as change in morphology at 25 uM incubated for 24 hrs by phase contrast microscopic assay; type: functional, cell-based
NCI-H1975 [2] = assay: Antitumor activity against human NCI-H1975 cells harboring L858R/T790M double mutant xenografted in nude mouse assessed as fold reduction in tumor size at 10 mg/kg, iv administered for every 3 days in presence of 5 mg/kg osimertinib; type: functional
PC-9 [3] = assay: Induction of apoptosis in human PC-9 cells at 25 uM incubated for 24 hrs by fluorescence microscopic analysis; type: functional, cell-based
HeLa [4] = assay: Induction of cell cycle arrest in human HeLa cells assessed as delay in S phase progression at 10 uM incubated for 24 hrs by PI staining based flow cytometry analysis; type: functional
PC-9 [5] = assay: Antitumor activity against human PC-9 cells xenografted in nude mouse assessed as fold reduction in tumor size at 10 mg/kg, iv; type: functional
HeLa [6] = assay: Antitumor activity against human HeLa cells xenografted in nude mouse assessed as fold reduction in tumor size at 10 mg/kg, iv; type: functional
HeLa [7] = assay: Induction of cell cycle arrest in human HeLa cells assessed as G2/M phase arrest at 10 uM incubated for 24 hrs by PI staining based flow cytometry analysis; type: functional
A549 [8] = assay: Cytotoxicity against human A549 cells incubated for 24 hrs by MTT assay; type: functional, cell-based; conditions: A549, 24 h
UBR/PLK1 (Homo sapiens) [9] = assay: Protac activity at UBR/PLK1 in human PC-9 cells assessed as PLK1 degradation at 5 to 30 uM preincubated for 24 hrs followed by MG132 addition for 8 hrs by immunoblotting analysis; conditions: dose 5-30 µM, time 32.0 hrs
[10] = Toxicity in nude mouse xenografted with human NCI-H1975 cells assessed as change in body weight at 10 mg/kg, iv administered for every 3 days; type: organism-based; conditions: in vivo, 72 h
PC-9 [11] = assay: Induction of cell cycle arrest in human PC-9 cells assessed as fold increase in S phase population at 10 uM incubated for 24 hrs by PI staining based flow cytometry analysis; type: functional
[12] = Protac activity at UBR/PLK1 in human HeLa cells assessed as PLK1 degradation incubated for 24 hrs by immunoblotting analysis
UBR/PLK1 (Homo sapiens) [13] = assay: as above; conditions: dose 25-100 µM
UBR/PLK1 (Homo sapiens) [14] = assay: Protac activity at UBR/PLK1 in human NCI-H1975 cells assessed as PLK1 degradation at 10 uM incubated for 2 to 24 hrs by immunoblotting analysis; conditions: time 2-24 hrs
HeLa [15] = assay: Induction of cell cycle arrest in human HeLa cells assessed as fold increase in S phase population at 10 uM incubated for 24 hrs by PI staining based flow cytometry analysis; type: functional
NCI-H1975 [16] = assay: Induction of cell cycle arrest in human NCI-H1975 cells assessed as fold increase in S phase population at 10 uM incubated for 24 hrs by PI staining based flow cytometry analysis; type: functional
NCI-H1975 [17] = assay: Antitumor activity against human NCI-H1975 cells harboring L858R/T790M double mutant xenografted in nude mouse assessed as fold reduction in tumor growth at 10 mg/kg, iv administered for every 3 days in presence of 5 mg/kg osimertinib; type: functional
NCI-H1975 [18] = assay: Induction of cell cycle arrest in human NCI-H1975 cells assessed as delay in S phase progression at 10 uM incubated for 24 hrs by PI staining based flow cytometry analysis; type: functional
HeLa [19] = assay: Cytotoxicity against human HeLa cells incubated for 24 hrs by MTT assay; type: functional, cell-based
[20] = target: E3 ubiquitin-protein ligase UBR2 (Homo sapiens) (UniProt Q8IWV8); assay: Binding affinity to UBR2 (unknown origin) expressed in HEK293T cells incubated for 3 hrs by pull-down assay; type: cell-based
UBR/PLK1 (Homo sapiens) [21] = assay: Protac activity at UBR/PLK1 in human NCI-H1975 cells assessed as PLK1 degradation at 5 to 30 uM preincubated for 24 hrs followed by MG132 addition for 8 hrs by immunoblotting analysis; conditions: dose 5-30 µM, time 32.0 hrs
A549 [22] = assay: Induction of apoptosis in human A549 cells at 25 uM incubated for 24 hrs by fluorescence microscopic analysis; type: functional, cell-based
A549 [23] = assay: Antitumor activity against human A549 cells xenografted in nude mouse assessed as fold reduction in tumor size at 10 mg/kg, iv; type: functional
[24] = In vivo induction of PLK1 degradation in nude mouse xenografted with human NCI-H1975 cells assessed as reduction in PLK1 protein expression at 10 mg/kg, iv administered for every 3 days in presence of 5 mg/kg osimertinib by Western blotting analysis; type: functional; parameters: scale not given: the % may be the effect or the level left
HeLa [25] = assay: Cytotoxicity against human HeLa cells assessed as change in morphology at 18 uM incubated for 24 hrs by phase contrast microscopic assay; type: functional, cell-based
UBR/PLK1 (Homo sapiens) [26] = assay: Protac activity at UBR/PLK1 in human NCI-H1975 cells assessed as PLK1 degradation at 30 uM incubated for 24 hrs by immunoblotting analysis
PC-9 [27] = assay: Induction of cell cycle arrest in human PC-9 cells assessed as delay in S phase progression at 10 uM incubated for 24 hrs by PI staining based flow cytometry analysis; type: functional
PC-9 [28] = assay: Induction of cell cycle arrest in human PC-9 cells assessed as G2/M phase arrest at 10 uM incubated for 24 hrs by PI staining based flow cytometry analysis; type: functional
[29] = target: Serine/threonine-protein kinase PLK1 (Homo sapiens, UniProt P53350); assay: Binding affinity to PLK1 PBD (unknown origin) by ITC method
[30] = Protac activity at UBR/PLK1 in human PC-9 cells assessed as PLK1 degradation incubated for 24 hrs by immunoblotting analysis
UBR/PLK1 (Homo sapiens) [31] = assay: as above; conditions: dose 5-25 µM
PC-9 [32] = assay: Cytotoxicity against human PC-9 cells assessed as change in morphology at 25 uM incubated for 24 hrs by phase contrast microscopic assay; type: functional, cell-based
[33] = Drug uptake in human HeLa cells cell membrane at 10 uM incubated for 24 hrs by PI staining based inverted confocal laser scanning fluorescence microscopic analysis; type: ADME
UBR/PLK1 (Homo sapiens) [34] = assay: Protac activity at UBR/PLK1 in human PC-9 cells assessed as PLK1 degradation at 30 uM incubated for 24 hrs by immunoblotting analysis
HeLa [35] = assay: Induction of apoptosis in human HeLa cells at 18 uM incubated for 24 hrs by fluorescence microscopic analysis; type: functional, cell-based

Sequence of Serine/threonine-protein kinase PLK1 (P53350 whole entry): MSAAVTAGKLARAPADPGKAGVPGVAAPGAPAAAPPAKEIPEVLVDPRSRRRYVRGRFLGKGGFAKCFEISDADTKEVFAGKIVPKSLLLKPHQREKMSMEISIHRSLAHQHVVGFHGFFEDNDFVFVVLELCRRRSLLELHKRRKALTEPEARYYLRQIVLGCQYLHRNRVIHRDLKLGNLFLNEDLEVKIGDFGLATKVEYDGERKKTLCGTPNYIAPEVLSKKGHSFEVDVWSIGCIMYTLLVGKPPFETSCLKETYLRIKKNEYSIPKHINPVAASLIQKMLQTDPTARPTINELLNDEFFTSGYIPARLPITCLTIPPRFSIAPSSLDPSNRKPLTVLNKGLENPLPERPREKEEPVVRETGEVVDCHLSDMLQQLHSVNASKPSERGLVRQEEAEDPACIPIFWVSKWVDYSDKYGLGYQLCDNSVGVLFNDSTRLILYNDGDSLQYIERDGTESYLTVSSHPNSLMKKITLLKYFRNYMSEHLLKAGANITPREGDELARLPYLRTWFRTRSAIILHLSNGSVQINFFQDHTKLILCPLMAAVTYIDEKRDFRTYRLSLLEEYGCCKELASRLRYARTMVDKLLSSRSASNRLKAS
Sequence of E3 ubiquitin-protein ligase UBR2 (Homo sapiens) (Q8IWV8 whole entry): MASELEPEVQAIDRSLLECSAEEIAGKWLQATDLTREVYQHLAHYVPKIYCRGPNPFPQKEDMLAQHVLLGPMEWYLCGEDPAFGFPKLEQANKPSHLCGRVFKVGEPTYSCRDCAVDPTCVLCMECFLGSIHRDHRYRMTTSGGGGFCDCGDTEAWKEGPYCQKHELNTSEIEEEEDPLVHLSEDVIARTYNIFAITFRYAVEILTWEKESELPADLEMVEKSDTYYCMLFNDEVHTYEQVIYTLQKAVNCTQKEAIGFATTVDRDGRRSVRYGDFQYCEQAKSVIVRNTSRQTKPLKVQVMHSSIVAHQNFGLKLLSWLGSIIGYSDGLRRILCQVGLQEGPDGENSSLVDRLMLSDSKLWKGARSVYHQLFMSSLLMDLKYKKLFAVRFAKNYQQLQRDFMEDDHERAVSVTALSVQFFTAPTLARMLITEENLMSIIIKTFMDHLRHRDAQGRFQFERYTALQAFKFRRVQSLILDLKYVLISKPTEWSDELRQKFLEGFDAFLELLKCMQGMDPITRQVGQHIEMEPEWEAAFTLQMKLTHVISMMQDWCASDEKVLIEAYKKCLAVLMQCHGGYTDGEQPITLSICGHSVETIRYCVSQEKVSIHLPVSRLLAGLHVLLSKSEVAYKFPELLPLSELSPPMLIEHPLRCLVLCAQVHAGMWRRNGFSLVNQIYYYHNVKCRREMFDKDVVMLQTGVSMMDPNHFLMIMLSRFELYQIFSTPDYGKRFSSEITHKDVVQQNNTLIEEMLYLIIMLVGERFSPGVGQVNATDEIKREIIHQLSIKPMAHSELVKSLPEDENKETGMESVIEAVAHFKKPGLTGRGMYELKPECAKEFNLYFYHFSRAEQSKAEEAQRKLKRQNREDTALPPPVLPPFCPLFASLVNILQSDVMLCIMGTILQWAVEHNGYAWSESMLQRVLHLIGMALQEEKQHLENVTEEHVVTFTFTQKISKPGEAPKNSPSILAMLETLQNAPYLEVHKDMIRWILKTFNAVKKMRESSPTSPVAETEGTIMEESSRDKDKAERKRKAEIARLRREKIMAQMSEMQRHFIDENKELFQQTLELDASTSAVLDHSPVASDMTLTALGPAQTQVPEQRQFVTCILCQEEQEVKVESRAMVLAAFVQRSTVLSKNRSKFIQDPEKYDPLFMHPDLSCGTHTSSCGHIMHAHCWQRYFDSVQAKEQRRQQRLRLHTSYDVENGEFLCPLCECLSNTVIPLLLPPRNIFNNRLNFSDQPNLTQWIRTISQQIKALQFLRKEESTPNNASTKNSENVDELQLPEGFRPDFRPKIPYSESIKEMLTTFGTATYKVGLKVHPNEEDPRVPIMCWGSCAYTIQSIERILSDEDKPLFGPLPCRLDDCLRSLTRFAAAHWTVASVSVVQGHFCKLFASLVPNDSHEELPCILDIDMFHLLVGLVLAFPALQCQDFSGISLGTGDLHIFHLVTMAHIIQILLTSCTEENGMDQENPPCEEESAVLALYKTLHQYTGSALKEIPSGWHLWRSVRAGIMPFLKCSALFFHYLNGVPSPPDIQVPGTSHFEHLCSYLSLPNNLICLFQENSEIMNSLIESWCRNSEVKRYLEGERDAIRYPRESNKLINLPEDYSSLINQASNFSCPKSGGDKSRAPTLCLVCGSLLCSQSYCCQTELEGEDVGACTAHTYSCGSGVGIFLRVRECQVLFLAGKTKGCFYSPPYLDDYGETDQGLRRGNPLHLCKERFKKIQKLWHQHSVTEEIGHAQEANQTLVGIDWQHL

For C[C@@H](OP(=O)(O)O)[C@@H]1NC(=O)[C@H](Cc2cncn2CCCCCCCCc2ccccc2)NC(=O)[C@@H](NC(=O)CCCCCNC(=O)[C@H](CCCNC(=N)N)NC(=O)[C@H](CCCNC(=N)N)NC(=O)[C@H](CCCNC(=N)N)NC(=O)[C@H](CCCNC(=N)N)NC(=O)[C@H](CCCNC(=N)N)NC(=O)[C@H](CCCNC(=N)N)NC(=O)[C@H](CCCNC(=N)N)NC(=O)[C@H](CCCNC(=N)N)NC(=O)[C@H](CCCNC(=N)N)NC(=O)[C@H](CCCNC(=N)N)NC(=O)[C@H](CCCNC(=N)N)NC(=O)[C@@H](N)CCCNC(=N)N)CCC(=O)NCCCC[C@@H](C(N)=O)NC1=O (H-RRRRRRRRRRRR[Ahx]E[His(π-(CH2)8Ph)][pT]K-NH2; lactam 14-17), the Activity (NCI-H1975 [1]) was “Active”, the “fold change (FC)” value (NCI-H1975 [2]) was 3.5 and the Activity (PC-9 [3]) was “Active”. The Activity (HeLa [4]) was “Active”, the “fold change (FC)” value (PC-9 [5]) was 5.2 and the “fold change (FC)” value (HeLa [6]) was 3.4. For the same molecule, the Activity (HeLa [7]) was 21%, the IC50 (A549 [8]) was 20.6 µM and the Activity (UBR/PLK1 (Homo sapiens) [9]) was “inactive”. For the same molecule, the Activity [10] was “Non-Toxic”, the Activity (PC-9 [11]) was “Active” and the DC50 [12] was 2.5 µM. The Activity (UBR/PLK1 (Homo sapiens) [13]) was “Dose-Dependent Effect”, the Activity (UBR/PLK1 (Homo sapiens) [14]) was “Active” and the Activity (HeLa [15]) was “Active”. The Activity (NCI-H1975 [16]) was “Active”, the “fold change (FC)” value (NCI-H1975 [17]) was ~7 and the Activity (NCI-H1975 [18]) was “Active”. For the same molecule, the IC50 (HeLa [19]) was 18 µM, the Activity [20] was “Active” and the Activity (UBR/PLK1 (Homo sapiens) [21]) was “inactive”. For the same molecule, the Activity (A549 [22]) was “Active”, the “fold change (FC)” value (A549 [23]) was 6.3 and the Activity [24] was 75%. For the same molecule, the Activity (HeLa [25]) was “Active”, the Emax (UBR/PLK1 (Homo sapiens) [26]) was 95% and the Activity (PC-9 [27]) was “Active”. For the same molecule, the Activity (PC-9 [28]) was 9%, the Kd [29] was 3.48 µM and the DC50 [30] was 12 µM. For the same molecule, the Activity (UBR/PLK1 (Homo sapiens) [31]) was “Dose-Dependent Effect”, the Activity (PC-9 [32]) was “Active” and the Drug uptake [33] was “Active”. The Emax (UBR/PLK1 (Homo sapiens) [34]) was 100% and the Activity (HeLa [35]) was “Active”.
